The test system of data set [1] is maximal electroshock seizures in mice. The data set is described as follows: Maximal electroshock test (MES test) in mice. Format: in vivo, mouse. As to conditions: 100 mg/kg. The source says: The MES test is a classical model to indicate efficacy for partial and generalized seizures in humans. The agents' mechanism of action is via their ability to prevent the spread of seizures. Some agents, however, that prevent seizure spread have the side effect of lowering seizure threshold. These agents therefore have both proconvulsive and anticonvulsive side effects.

Data set [2] deals with haloperidol-induced catalepsy in mice. The data set is described as follows: Reversal of haloperidol-induced catalepsy in mice. Format: in vivo, mouse. As to conditions: peak effect at 7.5-10 mg/kg, 3 hours after haloperidol. How it is done:
All drugs were administered i.p. in a volume of 0.2 mL. Two hours later, haloperidol was injected s.c. at a dose of 6 mg/kg in a volume of 0.1-0.2 mL. Motor coordination tests were made at 3 hours after giving haloperidol, that is, 5 hours after administering the presumed protective drugs.
Motor coordination tests and rigidity were quantified according to three different parameters: (a) ability to walk the length of a horizontal rod, 80 cm-long; (b) ability to climb down, face down, a vertical rod, 80 cm-long; (c) duration of immobility in an unnatural sitting posture whereby the abdomen of the mouse is pressed against a “wall.” Full performance as in haloperidol-untreated mice is given the score of 4 in each test, or a total of 12 in all tests. Poor performance is given a score from 1 to 3.

Data set [3] has as its system MCA-occluded Wistar rats. How it is done: (§1) Middle cerebral artery occlusion (MCAO) in the rat. […] Male Wistar rats (Olac England-Jerusalem) 300-400 g each were anesthetized with a solution of Equitesine administered i.p. at a dose of 3 mL/kg. Equitesine consists of 13.5 mL sodium pentothal solution (60 mg/mL), 3.5 g chloral hydrate, 1.75 g MgSO4, 33 mL propylene glycol, 8.3 mL absolute alcohol made up to 83 mL with distilled water. […] In order to expose the left middle cerebral artery, a cut was made in the temporal muscle. The tip of the coronoid process of mandible was excised as well and removed with a fine rongeur. Craniectomy was made with a dental drill at the junction between the median wall and the roof of the inferotemporal fossa. The dura matter was opened carefully using a 27 gauge needle. The MCA was permanently occluded by microbipolar coagulation at low power setting, beginning 2-3 mm medial to the olfactory tract between its cortical branch to the rhinal cortex and the laterate striate arteries.
After coagulation, the MCA was severed with microscissors and divided to ensure complete occlusion. Following this, the temporalis muscle was sutured and laid over the craniectomy site. The skin was closed with a running 3-0 silk suture. A shad craniectomy operation was performed on a parallel group of rats, but without cauterization of the MCA. […] The volume of brain tissue incurring damage following ischemia was determined. […]

In data set [4] the test system is crush-injured rat optic nerve. As to conditions: rats, 2 mg/kg i.p. immediately after optic nerve crush. The source says: At short terms, metabolic measurements were monitored in terms of the mitochondrial NADH/NAD ratio, which depends on the activity of the electron transport system, and thus indicate levels of energy production.
Monitoring of the intramitochondrial NADH redox state is based on the fact that NADH, unlike the oxidized form NAD^+, fluoresces when illuminated at […]. A flexible Y-shaped bundle of optic fibers (light guide) was used to transmit the light to and from the optic nerve. […] Changes in the reflected light were correlated with changes in tissue absorption caused by hemodynamic effects and with movements of the optic nerve secondary to alterations in arterial blood pressure and nerve volume.
Animal utilization was in accord with the ARVO Resolution on the use of animals in research. […] With the animal's head held in place by a head holder, a lateral canthotomy was performed under a binocular operating microscope and the conjuctiva was incised lateral to the cornea.

Data set [5] has as its system neonatal rat cerebellum cell cultures. As to conditions: for Percent Protection: after subtraction of solvent effect. The procedure: Procedures: cultures of mechanically dissociated neonatal rat cerebellum. […] The cerebella are then dissociated after 20-25 passages through a sterile 13 gauge, 10 cm long stainless steel needle attached to a 5 ml syringe with an inserted 45 μm pore size nylon sieve. The dissociated cells are centrifuged at 200 g for 5 minutes, the supernatant discarded and the cells resuspended in enriched medium. The cell viability is determined by the trypan blue exclusion test. […] After 4 days in culture, the media are replaced with media containing the desired test compounds. Experiments are done in duplicate and repeated 2 or 3 times. […] Nerve cell survival is evaluated by phase contrast microscopy and trypan blue staining after 24 h.
Values, expressed as the percent of untreated controls, represent the average of 2 experiments run in duplicate for culture experiments, and the mean±SEM of 4 animals for ischemia. The percent protection value is the effect of the test compound after subtraction of the solvent effect.

Data set [6] deals with MCA-occluded Wistar rats. How it is done: as §1
After coagulation, the MCA was severed with microscissors and divided to ensure complete occlusion. Following this, the temporalis muscle was sutured and laid over the craniectomy site. The skin was closed with a running 3-0 silk suture. A shad craniectomy operation was performed on a parallel group of rats, but without cauterization of the MCA. During the entire surgical operation (20-25 min) in either group, body temperature was maintained at 37 to 38° C. by means of a body-temperature regulator (Kyoristsu, Japan) consisting of a self-regulating heating pad connected to a rectal thermistor. […] The volume of brain tissue incurring damage following ischemia was determined.
1 mg/kg immediately after surgery.
0.5 mg/kg 2 hours after surgery
Then multislices T2-weighted images (3000/80) were acquired (5 contiguous slices, 3 mm thick).
The following MRI parameters were determined for each group of rats:
The use of contiguous slices allows the conversion-of area units into volume units by simply multiplying the area value by the slice thickness
This is another data set of the same source.

Data set [7] relates to Metrazol seizure threshold in mice. As to the kind of experiment: Timed Intravenous Infusion of Metrazol test. Format: in vivo, mouse. As to conditions: 141 mg/kg. How it is done: Timed Intravenous Infusion of Metrazol Test. This test measures the minimal seizure threshold of each animal. Metrazol is infused at 0.185 mg/ml into the tail veins of mice.
For data set [8], the system named is anoxia-induced hyperactive syndrome in juvenile rats. The data set is described as follows: Anoxia-induced hyperactive syndrome in juvenile rats. Format: in vivo, rat. As to conditions: 0.5 mg/kg/day to nursing mother.
Procedure: Anoxia was performed on rat pups on the first post-natal day. They were placed in a glass chamber and exposed to 100% nitrogen for 25 minutes. They were resuscitated by intermittent massage softly applied to the chest and then returned to their respective mothers. Control rats received the same treatment but with air instead of nitrogen.
Locomotion was measured in 6 fully computerized cages (28×28 cm) by recording the number of crossings over a given period of time. Crossings of grid infrared beams at 4-cm intervals initiated electrical impulses which fed a counter. Recordings of motor activity were made at the ages of 15 and 20 days, over a period of 15 minutes.
Data set [9] concerns amphetamine-induced stereotype behavior in senescent rats. The data set is described as follows: Amphetamine-induced stereotype behavior in senescent rats. Format: in vivo, rat. As to conditions: control senescent rats, 0.5 mg/kg/day in drinking water, amphetamine 0.5 mg/kg s.c. The procedure:
45 minutes later, lateral head movements were counted.

Data set [10] concerns MPTP-induced striatal DA and DOPAC depletions in mice. The data set is described as follows: Suppression of MPTP-induced dopaminergic toxicity (striatal DA and DOPAC). As to conditions: PAI […] i.p., deprenyl 5 mg/kg i.p., 5 days. The class given is in vivo, mouse.
Data set [11] concerns passive avoidance response in young rats. As to the kind of experiment: Passive avoidance test in young rats (memory). The class given is in vivo, rat. As to conditions: Protocol B (0.5 mg/kg/day), anoxia-lesioned rats. The source says: The effect of R(+)-PAI and S(−)-PAI on the improvement or restoration of memory was investigated in the passive avoidance test. If the drug is effective, it increases the latency of response to enter a dark compartment or chamber where an electroshock has been experienced earlier by the rat being tested. The latency of the maximal response is 300 seconds.

The mark [12] stands for this setting: pretreatment 1 h before MPTP 30 mg/kg s.c.

“And” between values parts separate entries of the source, which are not always exact repeats. Identical values can stand only once. Counter-ions that a name gives are not always drawn. Like-named read-outs stand apart in the source and are kept apart here.

Consider `C#CCN[C@@H]1CCc2ccccc21.CS(=O)(=O)O` [(R)-PAI Mesylate, R-(+)-N-propargyl-1-aminoindan mesylate], for which the mice protected result in data set [1] is “one out of three”. The “peak activity score as % of saline control” value in data set [2] amounted to 94%. Besides, in the data set with MCA-occluded Wistar rats [3] (n=5, 24 hrs after MCA-Occlusion, scale 0-13), the “Neurological Score, MEAN + SD” value is 2.78 ± 1.3. In the data set on MCA-occluded Wistar rats [3] (n=5 vs 6 untreated MCAO rats, mesylate), the “reduction of neurological score” value was 54% and 53.7%. Also, the “effect on injury-induced reduction in energy production (NADH response to anoxia)” value in data set [4] is on record as “blocked the injury-induced reduction in energy production”. Besides, the figures for the “Surviving Cells (percent of untreated controls)” value in data set [5] (0.01 μM + NMDA), in data set [5] (1.00 μM + NMDA) and in data set [5] (10.00 μM + NMDA) were 12, 22 and 37, respectively. Further, the “Percent Protection” value in data set [5] (0.01 μM + NMDA) is 2; in data set [5] (1.00 μM + NMDA), 12. The “Infarct size, MEAN ± SD” value in the data set with MCA-occluded Wistar rats [6] (Table 21, n=9, MRI T2 scan 48 h after MCA-O, 1.0, 0.5, 1.0 mg/kg ip at 0, 2, 24 hrs) turned out to be 163.5 ± 43.9 mm^3. In addition, the “reduction of infarct size” value with MCA-occluded Wistar rats [6] (Table 21, n=9 vs 10 untreated) is “[R](+)PAI Mesylate reduces infarct size by 40% significantly”; in the data set on MCA-occluded Wistar rats [6] (Table 22, n=5 vs 6 untreated MCAO rats, mesylate), 36% and 36.3%. Besides, in the data set with MCA-occluded Wistar rats [6] (Table 22, n=5, MRI 48 hrs after MCA-Occlusion), the “Infarct size, MEAN + SD” value turned out to be 172 ± 28 mm^3. Besides, in the data set with MCA-occluded Wistar rats [6] (n=9 vs 10 untreated), the “infarct size as % of that in untreated animals” value is reported as “about 60%”.

With `C#CCN[C@H]1CCc2ccccc21` [(S)-PAI Mesylate], the mice protected result in data set [1] is given as “three out of three”. Moreover, in data set [7], the “effect on time to first focal seizure and onset of clonus (proconvulsive activity)” value is “reduces the time”.

Turning to `C#CCN[C@H]1CCc2ccccc21` [S(−)PAI], the “numbers of crossings of infrared beam grid over 15 minutes” value in [8] (15-day old anoxia-lesioned rats) is on record as 334 ± 196(5). Also, the “numbers of crossings of infrared beam grid over 15 minutes” value in data set [8] (20-day old anoxia-lesioned rats) is 778 ± 232(6). Further, the “Stereotype Behavior Rating (lateral head movements in 1 minute)” value in [9] is given as 94 ± 18. In [10] (drug alone), the “striatal DA” value is 174.0 ± 4.8 ng/mg protein and the “striatal DOPAC” value was determined as 7.5 ± 0.2 ng/mg protein. Further, in [10] (setting [12]), the “striatal DA” value came out at 53.4 ± 6.9 ng/mg protein and the “striatal DOPAC” value is on record as 7.0 ± 0.6 ng/mg protein. In [11], the “latency After Electroshock” value worked out at 112 ± 112 s and the “latency Before Electroshock” value turned out to be 48 ± 19 s.
